Results reported in US20230406865A1, “CRYSTAL FORM OF FREE BASE OF INHIBITOR CONTAINING BICYCLIC RING DERIVATIVE AND PREPARATION METHOD AND APPLICATION OF CRYSTAL FORM” (SHANGHAI HANSOH BIOMEDICAL CO., LTD., priority 2020, published 2023).

What was measured:
[1] = molecular target: T1, RET kinase (Homo sapiens, UniProt P07949); assay: HTRF kinase activity inhibition, RET wild-type; assay type: biochemical; conditions: ATP at Km
T1 construct: purchased Carna 08-159
How it was run: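 HTRF (KinEASE-TK) kinase assay with recombinant RET wild-type, RET V804M, RET V804L and KIF5B-RET enzymes plus ATP.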

[2] = system: subcutaneous transplanted tumor of Ba/F3 KIF5B-RET cells; assay: Tumor suppression on Ba/F3 KIF5B-RET transplanted tumor model; assay type: in vivo, BALB/c nude mice
Protocol: Ba/F3 KIF5B-RET cells were removed from the cell bank, resuscitated and added to RPMI1640 medium (RPMI1640+10% FBS+1% Glu+1% P/S), then cultured in a CO2 incubator (incubator temperature was 37° C., CO2 concentration was 5%), and when the cell number expanded to the required number for in vivo inoculation, Ba/F3 KIF5B-RET cells were collected. The cells were counted with an automatic cell counter, resuspended with PBS according to the count results, made into a cell suspension (density was 2×10^7/mL), and placed in an ice box for use.
Female BALB/c nude mice aged 6-8 weeks were used, weighing about 18-22 g. Mice were reared in SPF animal room, and were reared in a single cage with 5 mice in each cage. All cages, bedding and water were sterilized at high temperature before use, and all animals were allowed to eat and drink freely. Nude mice were labeled with disposable universal ear tags for mice and rats before the start of the experiment, and the skin of the inoculation site was disinfected with 75% medical alcohol before inoculation. 0.1 mL (containing 2*10^6 cells) of Ba/F3 KIF5B-RET cells were inoculated subcutaneously on the right back of each mouse. Group administration was initiated when the tumor volume reached 60-200 mm^3, with 5 mice in each group. Each test compound was administered orally twice a day for 14 days. The tumor volume and the weight of mice were measured twice a week, and the tumor TGI (%) was calculated.
The tumor volume (mm^3) was calculated as V=0.5*D*d*d, where D and d were the long and short diameters of the tumor, respectively.
When there was no tumor regression, TGI (%)=[(1-(mean tumor volume at the end of the administration in a treatment group−mean tumor volume at the start of administration in the treatment group))/(mean tumor volume at the end of treatment in the solvent control group−mean tumor volume at the start of treatment in the solvent control group)]×100%.
When there was tumor regression, TGI (%)=[1-(mean tumor volume at the end of administration in a treatment group−mean tumor volume at the beginning of administration in the treatment group)/mean tumor volume at the beginning of administration in the treatment group]×100%.

[3] = molecular target: T2, Ba/F3 KIF5B-RET cells (Homo sapiens, UniProt P07949); assay: Inhibition of proliferation of Ba/F3 KIF5B-RET cells (CellTiter-Glo); assay type: cell-based; conditions: 72 to 144 hours
T2 construct: fused on or other part: P33176 (Kinesin-1 heavy chain)
How it was run: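 Cells plated overnight, then exposed to compound dilutions in DMSO/medium at 37° C, 5% CO2 for 72 to 144 hours. Viability read by CellTiter-Glo luminescence; IC50 from inhibition rates fitted by nonlinear regression.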

[4] = system: TT cells (MTC, RET C634W); assay: Inhibition of proliferation of TT cells (CellTiter-Glo, 72 h); assay type: cell-based; conditions: Homo sapiens
How it was run: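 TT cells seeded overnight, then exposed to compound dilutions for 72 h at 37 °C, 5% CO2, with a solvent control. Viability read by CellTiter-Glo luminescence; IC50 from nonlinear regression of inhibition rate versus concentration.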

[5] = molecular target: T3, RET M918T (Homo sapiens, UniProt P07949, M918T); assay: HTRF kinase activity inhibition, RET M918T; assay type: biochemical; conditions: ATP at Km
T3 construct: purchased Carna 08-508
From the text: 2.2 Experimental Reagents: • RET enzyme was purchased from Carna Company, and the article number was 08-159; • RET M918T enzyme was purchased from Carna Company, and the article number was 08-508; • KIF5B-RET was purchased from SignalChem Company, the article number was R02-19FG-05; • CCDC6-RET was purchased from SignalChem Company, the article number was R02-19BG-05; • RET V804M enzyme was purchased from Thermofisher Company, and the article number was PV6223; • RET V804L enzyme was purchased from Thermofisher Company, and the article number was PV4397; • HTRF KinEASE-TK kit was purchased from Cisbio Company, and the article number was 62TK0PEC; • ATP was purchased from Thermofisher Company, and the article number was PV3227; • 384-well plate was purchased from PerkinElmer Company, and the article number was 6007290.
In this experiment, a homogeneous time-resolved fluorescence (HTRF) method was used for the detection of compounds on RET kinase activity.

[6] = molecular target: T4, KDR kinase (Homo sapiens, UniProt P35968); assay: HTRF kinase activity inhibition, KDR; assay type: biochemical; conditions: for IC50: HTRF, ATP at Km; for Ratio (KDR/RET): KDR IC50 / RET IC50
T4 construct: purchased Carna 08-191
How it was run: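 Inhibition of KDR kinase activity measured by homogeneous time-resolved fluorescence with a tyrosine-kinase KinEASE substrate kit and ATP.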

[7] = Balb/C mouse pharmacokinetics, oral 5 mg/kg; assay type: in vivo, Balb/C mice; conditions: male, p.o. 5 mg/kg, plasma; for MRT: read-out: Average residence time MRT; for Cmax: read-out: Blood concentration Cmax; for AUC(0-t): read-out: Curve area AUC0-t; for AUC(0-inf): read-out: Curve area AUC0-∞; for half-life: read-out: Half-life t1/2 (converted); for Tmax: read-out: Peak time tmax
How it was run: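 Male Balb/C mice (6 per compound) were fasted overnight and dosed in 0.5% CMC-Na (1% Tween80) solution or suspension. EDTA-K2 plasma was sampled at 0, 0.5, 1, 2, 4, 6, 8 and 24 h. Compound levels were measured by LC/MS/MS after acetonitrile precipitation, and PK parameters were derived from the plasma profiles.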

T3 sequence (P07949 29-1114 M918T): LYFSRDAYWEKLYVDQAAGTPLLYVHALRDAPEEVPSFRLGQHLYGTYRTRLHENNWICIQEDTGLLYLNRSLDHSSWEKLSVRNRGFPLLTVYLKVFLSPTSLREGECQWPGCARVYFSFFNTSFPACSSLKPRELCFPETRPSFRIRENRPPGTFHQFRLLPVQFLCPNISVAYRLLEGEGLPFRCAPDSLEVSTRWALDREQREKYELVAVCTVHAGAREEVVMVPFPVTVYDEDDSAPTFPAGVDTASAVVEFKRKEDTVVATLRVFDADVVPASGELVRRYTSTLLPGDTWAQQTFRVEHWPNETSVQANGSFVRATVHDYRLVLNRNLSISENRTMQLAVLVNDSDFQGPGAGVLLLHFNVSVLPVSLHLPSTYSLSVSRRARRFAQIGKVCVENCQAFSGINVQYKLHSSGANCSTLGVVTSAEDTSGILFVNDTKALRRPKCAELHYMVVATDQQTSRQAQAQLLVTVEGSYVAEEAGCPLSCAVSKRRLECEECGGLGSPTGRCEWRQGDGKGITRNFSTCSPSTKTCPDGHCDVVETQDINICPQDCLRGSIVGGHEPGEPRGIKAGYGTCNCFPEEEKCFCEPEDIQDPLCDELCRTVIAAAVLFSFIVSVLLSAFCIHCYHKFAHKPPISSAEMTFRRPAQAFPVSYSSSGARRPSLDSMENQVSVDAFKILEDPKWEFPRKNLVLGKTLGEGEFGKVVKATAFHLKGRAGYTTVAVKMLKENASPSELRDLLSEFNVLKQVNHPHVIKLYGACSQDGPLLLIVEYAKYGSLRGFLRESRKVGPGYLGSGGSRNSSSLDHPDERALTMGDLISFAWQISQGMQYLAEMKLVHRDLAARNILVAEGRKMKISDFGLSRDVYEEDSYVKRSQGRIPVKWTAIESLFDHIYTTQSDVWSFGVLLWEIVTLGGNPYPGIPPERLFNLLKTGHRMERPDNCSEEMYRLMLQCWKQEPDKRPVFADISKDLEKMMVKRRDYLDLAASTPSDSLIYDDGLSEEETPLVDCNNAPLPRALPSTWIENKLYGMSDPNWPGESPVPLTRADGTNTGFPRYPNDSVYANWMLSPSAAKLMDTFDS
T1 sequence (P07949 29-1114): as the sequence (P07949 29-1114 M918T) above, with T890M counted along it
T4 sequence (P35968 20-1356): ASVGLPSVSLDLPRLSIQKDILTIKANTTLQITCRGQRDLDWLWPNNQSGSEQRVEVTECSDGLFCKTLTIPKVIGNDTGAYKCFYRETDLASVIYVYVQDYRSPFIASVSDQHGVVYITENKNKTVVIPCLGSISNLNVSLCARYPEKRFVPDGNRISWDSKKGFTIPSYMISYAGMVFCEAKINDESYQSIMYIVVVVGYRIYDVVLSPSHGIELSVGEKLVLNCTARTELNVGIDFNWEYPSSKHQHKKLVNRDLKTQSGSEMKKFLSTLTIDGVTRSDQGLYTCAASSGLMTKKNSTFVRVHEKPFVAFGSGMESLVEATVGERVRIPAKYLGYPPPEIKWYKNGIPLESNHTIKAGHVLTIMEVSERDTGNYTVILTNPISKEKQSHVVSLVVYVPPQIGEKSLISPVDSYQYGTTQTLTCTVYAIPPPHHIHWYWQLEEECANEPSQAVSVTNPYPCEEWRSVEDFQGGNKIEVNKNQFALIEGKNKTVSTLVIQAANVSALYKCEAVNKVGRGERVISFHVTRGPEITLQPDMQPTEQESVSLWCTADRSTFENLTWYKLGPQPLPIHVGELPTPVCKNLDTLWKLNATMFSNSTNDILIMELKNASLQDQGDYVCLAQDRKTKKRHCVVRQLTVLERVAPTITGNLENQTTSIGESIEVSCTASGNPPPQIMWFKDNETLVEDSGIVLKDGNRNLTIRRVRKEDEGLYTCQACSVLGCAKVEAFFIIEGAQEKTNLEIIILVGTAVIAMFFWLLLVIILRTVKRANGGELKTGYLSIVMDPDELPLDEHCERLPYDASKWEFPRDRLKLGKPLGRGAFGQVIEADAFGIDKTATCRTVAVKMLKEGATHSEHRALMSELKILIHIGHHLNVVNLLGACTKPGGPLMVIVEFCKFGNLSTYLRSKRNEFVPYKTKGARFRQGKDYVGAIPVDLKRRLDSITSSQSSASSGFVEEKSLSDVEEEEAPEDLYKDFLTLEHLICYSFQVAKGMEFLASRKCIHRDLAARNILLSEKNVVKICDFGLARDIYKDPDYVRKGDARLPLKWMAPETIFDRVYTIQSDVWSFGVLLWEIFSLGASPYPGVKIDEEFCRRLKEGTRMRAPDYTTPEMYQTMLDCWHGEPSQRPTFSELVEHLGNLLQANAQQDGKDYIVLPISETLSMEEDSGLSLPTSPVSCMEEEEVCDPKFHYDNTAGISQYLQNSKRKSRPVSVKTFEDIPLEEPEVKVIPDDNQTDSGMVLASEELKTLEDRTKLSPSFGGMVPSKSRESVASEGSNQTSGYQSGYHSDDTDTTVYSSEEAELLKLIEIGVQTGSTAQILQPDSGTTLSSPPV
T2 sequence (P07949 whole entry, change not shown, the tested form may be a part): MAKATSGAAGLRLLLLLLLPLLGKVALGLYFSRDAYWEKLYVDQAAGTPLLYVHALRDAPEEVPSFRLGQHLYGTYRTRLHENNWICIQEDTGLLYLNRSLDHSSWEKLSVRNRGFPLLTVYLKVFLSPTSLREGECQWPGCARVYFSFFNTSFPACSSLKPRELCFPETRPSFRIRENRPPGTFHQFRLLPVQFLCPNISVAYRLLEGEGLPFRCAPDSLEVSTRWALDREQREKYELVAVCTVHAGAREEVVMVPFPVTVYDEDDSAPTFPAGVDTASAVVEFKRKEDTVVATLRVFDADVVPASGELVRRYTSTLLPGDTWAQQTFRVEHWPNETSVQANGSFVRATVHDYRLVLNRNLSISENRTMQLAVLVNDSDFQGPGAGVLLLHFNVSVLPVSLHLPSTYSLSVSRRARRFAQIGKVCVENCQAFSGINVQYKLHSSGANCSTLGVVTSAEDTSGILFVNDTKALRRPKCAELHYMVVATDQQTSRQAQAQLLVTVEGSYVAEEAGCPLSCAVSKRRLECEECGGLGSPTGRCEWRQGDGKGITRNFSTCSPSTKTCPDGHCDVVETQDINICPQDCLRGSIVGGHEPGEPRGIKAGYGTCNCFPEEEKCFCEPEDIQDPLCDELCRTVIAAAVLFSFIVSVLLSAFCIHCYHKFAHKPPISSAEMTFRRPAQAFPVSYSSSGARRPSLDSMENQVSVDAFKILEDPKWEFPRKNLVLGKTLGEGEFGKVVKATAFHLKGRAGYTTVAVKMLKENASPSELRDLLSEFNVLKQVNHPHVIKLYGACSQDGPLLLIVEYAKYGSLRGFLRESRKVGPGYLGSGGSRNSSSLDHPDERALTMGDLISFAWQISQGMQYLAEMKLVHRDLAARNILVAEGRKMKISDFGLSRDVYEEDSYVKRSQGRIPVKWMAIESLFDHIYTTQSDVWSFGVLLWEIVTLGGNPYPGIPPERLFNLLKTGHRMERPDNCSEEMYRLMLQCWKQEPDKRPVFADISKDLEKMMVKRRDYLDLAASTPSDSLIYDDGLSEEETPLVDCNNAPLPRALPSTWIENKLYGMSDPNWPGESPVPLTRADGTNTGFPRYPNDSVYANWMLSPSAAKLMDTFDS

SMILES	IC50 [1] [nM]	Tumor volume (Mean ± SD) Day 0 ([2]; 10 mg/kg oral twice a day) [mm^3]	TGI (%) Day 14 ([2]; 10 mg/kg oral twice a day) [%]	Tumor volume (Mean ± SD) Day 14 ([2]; 10 mg/kg oral twice a day) [mm^3]	IC50 [3] [nM]	IC50 [4] [nM]	IC50 [5] [nM]	IC50 [6] [nM]	Ratio (KDR/RET) [6]	MRT [7] [h]	Cmax [7] [ng/mL]	AUC(0-t) [7] [ng·h/mL]	AUC(0-inf) [7] [ng·h/mL]	half-life [7] [h]	Tmax [7] [h]	Tumor volume (Mean ± SD) Day 0 ([2]; 30 mg/kg oral twice a day) [mm^3]	TGI (%) Day 14 ([2]; 30 mg/kg oral twice a day) [%]	Tumor volume (Mean ± SD) Day 14 ([2]; 30 mg/kg oral twice a day) [mm^3]
COc1ccc(CN2C3CC2CN(c2ccc(-c4cc(N5CC(C(C)(C)O)C5)cn5ncc(C#N)c45)cn2)C3)cn1 [Embodiment 7, 6-(3-(2-Hydroxypropan-2-yl)azetidin-1-yl)-4-(6-(6-((6-methoxypyridin-3-yl)methyl)-3,6-diazabicyclo[3.1.1]heptan-3-yl)pyridin-3-yl)pyrazolo[1,5-a]pyridine-3-carbonitrile]	0.69	100.80 ± 31.28	90.82	232.46 ± 133.65	13	11	1.06	11	16	3.76	3280	13800	13800	2.18	0.5	–	–	–
CC1(NC(=O)c2ncccc2Cl)CCN(c2ccc(-c3cc(OCC4(C#N)CC4)cn4ncc(C#N)c34)cn2)CC1 [Embodiment 92, 3-Chloro-N-(1-(5-(3-cyano-6-((1-cyanocyclopropyl)methoxy)pyrazolo[1,5-a]pyridin-4-yl)pyridin-2-yl)-4-methylpiperidin-4-yl)picolinamide]	0.85	–	–	–	32.1	27.4	–	185	218	2.85	9340	24500	24500	1.7	0.5	133.41 ± 18.82	126.35	98.26 ± 33.71
C#CC(C)(O)COc1cc(-c2ccc(N3CC4CC(C3)N4Cc3ccc(OC)nc3)nc2)c2c(C#N)cnn2c1 (stereo not drawn) [Embodiment 62, 6-((2-Hydroxy-2-methylbut-3-yn-1-yl)oxy)-4-(6-(6-((6-methoxypyridin-3-yl)methyl)-3,6-diazabicyclo[3.1.1]heptan-3-yl)pyridin-3-yl)pyrazolo[1,5-a]pyridine-3-carbonitrile]	0.48	100.24 ± 27.85	89.74	247.52 ± 85.65	–	–	–	35.2	73	4.07	2820	13800	13800	2.4	0.5	–	–	–
COc1ccc(CN2C3CC2CN(c2ccc(-c4cc(C#CC(C)(C)O)cn5ncc(C#N)c45)cn2)C3)cn1 [Embodiment 8, 6-(3-Hydroxy-3-methylbut-1-yn-1-yl)-4-(6-(6-((6-methoxypyridin-3-yl)methyl)-3,6-diazabicyclo[3.1.1]heptan-3-yl)pyridin-3-yl)pyrazolo[1,5-a]pyridine-3-carbonitrile]	0.48	–	–	–	12	17	0.67	16	34	4.91	3710	21400	21500	3.37	0.5	–	–	–
COc1ncc(CN2C3CC2CN(c2ccc(-c4cc(OCC5(C#N)CCOCC5)cn5ncc(C#N)c45)cn2)C3)cc1F [Embodiment 60, 6-((4-Cyanotetrahydro-2H-pyran-4-yl)methoxy)-4-(6-(6-((5-fluoro-6-methoxypyridin-3-yl)methyl)-3,6-diazabicyclo[3.1.1]heptan-3-yl)pyridin-3-yl)pyrazolo[1,5-a]pyridine-3-carbonitrile]	0.58	–	–	–	18	28.4	–	257	445	5.56	3080	28000	28200	3.26	0.5	–	–	–
CC(C)(O)C#Cc1cc(-c2ccc(N3CCC(C)(NC(=O)c4ncccc4Cl)CC3)nc2)c2c(C#N)cnn2c1 [Embodiment 85, 3-Chloro-N-(1-(5-(3-cyano-6-(3-hydroxy-3-methylbut-1-yn-1-yl)pyrazolo[1,5-a]pyridin-4-yl)pyridin-2-yl)-4-methylpiperidin-4-yl)picolinamide]	0.38	–	–	–	–	9.44	0.79	46	122	–	–	–	–	–	–	–	–	–
COc1ncc(CN2C3CC2CN(c2ccc(-c4cc(N5CC(C(C)(C)O)C5)cn5ncc(C#N)c45)cn2)C3)cc1F [Embodiment 31, 4-(6-(6-((5-Fluoro-6-methoxypyridin-3-yl)methyl)-3,6-diazabicyclo[3.1.1]heptan-3-yl)pyridin-3-yl)-6-(3-(2-hydroxypropan-2-yl)azetidin-1-yl)pyrazolo[1,5-a]pyridine-3-carbonitrile]	0.75	–	–	–	–	6.59	0.47	23	30	4.71	3120	18900	18900	2.66	0.5	–	–	–
C#C[C@](C)(O)COc1cc(-c2ccc(N3CC4CC(C3)N4Cc3cnc(OC)c(F)c3)nc2)c2c(C#N)cnn2c1 [Embodiment 65, 4-(6-(6-((5-Fluoro-6-methoxypyridin-3-yl)methyl)-3,6-diazabicyclo[3.1.1]heptan-3-yl)pyridin-3-yl)-6-(((S)-2-hydroxy-2-methylbut-3-yn-1-yl)oxy)pyrazolo[1,5-a]pyridine-3-carbonitrile]	0.33	100.40 ± 29.77	87.71	276.69 ± 106.21	7.03	12.7	–	14.5	44	5.24	2400	20200	20300	3.05	2	–	–	–
COc1ccc(CN2C3CC2CN(c2ccc(-c4cc(C#CC(C)(C)N)cn5ncc(C#N)c45)cn2)C3)cn1 [Embodiment 17, 6-(3-Amino-3-methylbut-1-yn-1-yl)-4-(6-(6-((6-methoxypyridin-3-yl)methyl)-3,6-diazabicyclo[3.1.1]heptan-3-yl)pyridin-3-yl)pyrazolo[1,5-a]pyridine-3-carbonitrile]	0.39	–	–	–	–	13.1	0.38	8.2	21	–	–	–	–	–	–	–	–	–
